Test results: PubChem BioAssay (NCI)
Several values for one entry are separate records, joined by “and”; a condition that tells them apart may be missing. Identical values can stand only once.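 96-well plates; 48 h exposure; 5 concentrations. Endpoints by linear interpolation between flanking doses. Not reached: highest tested concentration assigned. Abbreviation: GI50, concentration required for 50% inhibition of growth. At the TGI there is no net growth.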

Assays:
Experiment in all cases: NCI tumour cell line growth inhibition, 48 h; in the data active = GI50 below about 0.43 µM; inactive = the rest
SF-268 CNS = tested on: SF-268 CNS
HOP-18 NSCLC = tested on: HOP-18 NSCLC
OVCAR-8 ovarian = tested on: OVCAR-8 ovarian
P388/ADR leukemia = tested on: P388/ADR leukemia
NCI-H23 lung = tested on: NCI-H23 lung
SN12K1 renal = tested on: SN12K1 renal
UACC-62 melanoma = tested on: UACC-62 melanoma
IGROV1 ovarian = tested on: IGROV1 ovarian
XF 498 CNS = tested on: XF 498 CNS
NCI-H460 lung = tested on: NCI-H460 lung
HOP-62 NSCLC = tested on: HOP-62 NSCLC
LOX IMVI melanoma = tested on: LOX IMVI melanoma
K-562 leukemia = tested on: K-562 leukemia
HCT-15 colon = tested on: HCT-15 colon
HCC-2998 colon = tested on: HCC-2998 colon
SNB-78 CNS = tested on: SNB-78 CNS
MCF7 breast = tested on: MCF7 breast
KM20L2 colon = tested on: KM20L2 colon
RPMI-8226 leukemia = tested on: RPMI-8226 leukemia
U251 CNS = tested on: U251 CNS
DMS 273 small cell lung = tested on: DMS 273 small cell lung
HCT-116 colon = tested on: HCT-116 colon
EKVX NSCLC = tested on: EKVX NSCLC
SN12C renal = tested on: SN12C renal
TK-10 renal = tested on: TK-10 renal
SK-MEL-5 melanoma = tested on: SK-MEL-5 melanoma
SK-MEL-28 melanoma = tested on: SK-MEL-28 melanoma
DLD-1 colon = tested on: DLD-1 colon
RXF 393 renal = tested on: RXF 393 renal
HT29 colon = tested on: HT29 colon
NCI-H522 lung = tested on: NCI-H522 lung
OVCAR-3 ovarian = tested on: OVCAR-3 ovarian
CCRF-CEM leukemia = tested on: CCRF-CEM leukemia
HOP-92 NSCLC = tested on: HOP-92 NSCLC
SK-MEL-2 melanoma = tested on: SK-MEL-2 melanoma
A498 renal = tested on: A498 renal
SK-OV-3 ovarian = tested on: SK-OV-3 ovarian
M19-MEL melanoma = tested on: M19-MEL melanoma
SNB-75 CNS = tested on: SNB-75 CNS
OVCAR-5 ovarian = tested on: OVCAR-5 ovarian
KM12 colon = tested on: KM12 colon
UACC-257 melanoma = tested on: UACC-257 melanoma
A549 NSCLC = tested on: A549 NSCLC
UO-31 renal = tested on: UO-31 renal
MOLT-4 leukemia = tested on: MOLT-4 leukemia
SF-539 CNS = tested on: SF-539 CNS
HL-60(TB) leukemia = tested on: HL-60(TB) leukemia
DMS 114 small cell lung = tested on: DMS 114 small cell lung
COLO 205 colon = tested on: COLO 205 colon
SF-295 CNS = tested on: SF-295 CNS
SW-620 colon = tested on: SW-620 colon
OVCAR-4 ovarian = tested on: OVCAR-4 ovarian
NCI-H226 lung = tested on: NCI-H226 lung
P388 leukemia = tested on: P388 leukemia
CAKI-1 renal = tested on: CAKI-1 renal
SNB-19 CNS = tested on: SNB-19 CNS
NCI/ADR-RES ovarian = tested on: NCI/ADR-RES ovarian
MALME-3M melanoma = tested on: MALME-3M melanoma
ACHN renal = tested on: ACHN renal
LXFL 529 NSCLC = tested on: LXFL 529 NSCLC
M14 melanoma = tested on: M14 melanoma
786-0 renal = tested on: 786-0 renal
RXF-631 renal = tested on: RXF-631 renal

C=CC1(C)CC(=O)C2(O)C(C)(O1)C(OC(C)=O)C(O)C1C(C)(C)CCC(O)C12C (configuration not stated)
> 138 µM: TGI (HOP-18 NSCLC)
> 122 µM: TGI (COLO 205 colon) | TGI (OVCAR-4 ovarian)
142 µM: TGI (XF 498 CNS)
inactive: GI50 (IGROV1 ovarian) > 77.2 µM | GI50 (HOP-62 NSCLC) > 83.2 µM | GI50 (RPMI-8226 leukemia) > 57.2 µM | GI50 (SN12C renal) > 49 µM | GI50 (RXF 393 renal) 4.98 µM | GI50 (CCRF-CEM leukemia) > 65.8 µM | GI50 (HOP-92 NSCLC) 20.3 µM | GI50 (SNB-75 CNS) 4.13 µM | GI50 (KM12 colon) 2.37 µM | GI50 (UO-31 renal) > 72.5 µM | GI50 (MOLT-4 leukemia) > 91.2 µM | GI50 (DMS 114 small cell lung) > 71.6 µM | GI50 (CAKI-1 renal) > 55.2 µM
> 115 µM: TGI (MCF7 breast)
> 121 µM: TGI (IGROV1 ovarian)
> 34.6 µM: TGI (TK-10 renal)
> 84.4 µM: TGI (P388/ADR leukemia)
> 94.6 µM: TGI (U251 CNS)
58.8 µM: TGI (CAKI-1 renal)
> 102 µM: TGI (SN12C renal) | TGI (SK-MEL-5 melanoma)
101 µM: TGI (UACC-62 melanoma)
45.5 µM: TGI (OVCAR-5 ovarian)
> 120 µM: TGI (SK-OV-3 ovarian)
120 µM: TGI (RPMI-8226 leukemia)
90.6 µM and > 119 µM: TGI (RXF 393 renal)
> 130 µM: TGI (NCI/ADR-RES ovarian)
> 127 µM: TGI (M19-MEL melanoma)
> 72.8 µM: TGI (NCI-H226 lung)
> 137 µM: TGI (UO-31 renal) | TGI (HL-60(TB) leukemia)
> 150 µM: TGI (SF-268 CNS) | TGI (OVCAR-8 ovarian) | TGI (NCI-H23 lung) | TGI (SN12K1 renal) | TGI (NCI-H460 lung) | TGI (HOP-62 NSCLC) | TGI (LOX IMVI melanoma) | TGI (K-562 leukemia) | TGI (HCT-15 colon) | TGI (HCC-2998 colon) | TGI (SNB-78 CNS) | TGI (KM20L2 colon) | TGI (DMS 273 small cell lung) | TGI (HCT-116 colon) | TGI (EKVX NSCLC) | TGI (SK-MEL-28 melanoma) | TGI (DLD-1 colon) | TGI (HT29 colon) | TGI (NCI-H522 lung) | TGI (OVCAR-3 ovarian) | TGI (CCRF-CEM leukemia) | TGI (HOP-92 NSCLC) | TGI (SK-MEL-2 melanoma) | TGI (A498 renal) | TGI (SNB-75 CNS) | TGI (KM12 colon) | TGI (UACC-257 melanoma) | TGI (A549 NSCLC) | TGI (MOLT-4 leukemia) | TGI (SF-539 CNS) | TGI (SF-295 CNS) | TGI (SW-620 colon) | TGI (P388 leukemia) | TGI (SNB-19 CNS) | TGI (MALME-3M melanoma)
> 108 µM: TGI (DMS 114 small cell lung)

CN1Cc2c(nc(-c3ccccc3)c[n+]2[O-])N(C)C1
> 100 µM: TGI (SF-268 CNS) | TGI (HOP-18 NSCLC) | TGI (OVCAR-8 ovarian) | TGI (NCI-H23 lung) | TGI (UACC-62 melanoma) | TGI (IGROV1 ovarian) | TGI (XF 498 CNS) | TGI (NCI-H460 lung) | TGI (HOP-62 NSCLC) | TGI (LOX IMVI melanoma) | TGI (K-562 leukemia) | TGI (HCT-15 colon) | TGI (HCC-2998 colon) | TGI (SNB-78 CNS) | TGI (ACHN renal) | TGI (KM20L2 colon) | TGI (RPMI-8226 leukemia) | TGI (U251 CNS) | TGI (DMS 273 small cell lung) | TGI (EKVX NSCLC) | TGI (SN12C renal) | TGI (TK-10 renal) | TGI (SK-MEL-5 melanoma) | TGI (SK-MEL-28 melanoma) | TGI (DLD-1 colon) | TGI (HT29 colon) | TGI (NCI-H522 lung) | TGI (OVCAR-3 ovarian) | TGI (CCRF-CEM leukemia) | TGI (HOP-92 NSCLC) | TGI (SK-MEL-2 melanoma) | TGI (A498 renal) | TGI (LXFL 529 NSCLC) | TGI (SK-OV-3 ovarian) | TGI (M14 melanoma) | TGI (M19-MEL melanoma) | TGI (SNB-75 CNS) | TGI (OVCAR-5 ovarian) | TGI (KM12 colon) | TGI (UACC-257 melanoma) | TGI (A549 NSCLC) | TGI (UO-31 renal) | TGI (MOLT-4 leukemia) | TGI (SF-539 CNS) | TGI (HL-60(TB) leukemia) | TGI (DMS 114 small cell lung) | TGI (786-0 renal) | TGI (COLO 205 colon) | TGI (SF-295 CNS) | TGI (SW-620 colon) | TGI (RXF-631 renal) | TGI (OVCAR-4 ovarian) | TGI (NCI-H226 lung) | TGI (CAKI-1 renal) | TGI (SNB-19 CNS) | TGI (MALME-3M melanoma)
